# “And” between values parts separate entries of the source, which are not always exact repeats. Equal values may be shown once.
# Tested on: GEMS receptors with CBPA11 (BclXL–LD3 and BclXLhigh variants), STAT3-driven SEAP in HEK293T cells
# Experiment: GEMS SEAP reporter assay, CBPA11 (BclXLhigh, LD3-v and BclXL-v variants) with A-1155463
# Assay type: cell-based
# Design: key to Raw data (SEAP) / SEAP, replicate values / Raw data of Figure 5b / Raw data Figure 5e / Raw data of Independent repeat of CBPA11-v1 vs CBPA11-v1-LD3v3 / Raw data of Independent repeat of CBPA11-v3 vs CBPA11-v3-LD3v3 / Raw data of Figure 5b, CBPA11-v1-LD3v3 (SEAP reporter raw value, single replicate) / Raw data of Figure 5b, CBPA11-v1 (SEAP reporter raw value, single replicate): SEAP activity in U/L in culture supernatant
# Settings: for Normalized data (SEAP) / Raw data (SEAP): SuppFigure 9c, LD3v3
# Text: To rationally design a CBP responding to a chemical input, we used BclXL as the druglow receptor, LD3 as the designed binder and a designed BclXL variant as the drughigh receptor (referred to as BclXLhigh) to construct a CBP responsive to BclXL inhibitors (Fig. 4a). To design BclXLhigh, we used a multistate design computational protocol described elsewhere[26] […] Thus, BclXLhigh-v(1–3) were chosen as the functional drughigh receptors, resulting in three A-1155463-controlled CBPs (referred to as CBPA11-v(1–3)) (Fig. 4c–e).
# HEK293T cells were seeded in a 96-well plate 24 h before transfection. The transfection mix in each well consisted of 3 ng of constitutive human CMV promoter driven mammalian STAT3 expression vector (PhCMV-STAT3-pA), 30 ng of STAT3-induced reporter expression (OStat3-PhCMVmin-SEAP-pA) and 50 ng of expression vectors for each GEMS receptor chain (PSV40-IgK-(drughigh receptor)-EpoRm-IL-6RBm-pA and PSV40-IgK-(druglow receptor-GGGGSX3-LD3)-EpoRm-IL-6RBm-pA). For the specific drughigh receptor and druglow receptor used in the different cellular assays, they are indicated as wild type or with mutations. Then, plasmid DNA was mixed with 50 μl opti-MEM (Thermo Fisher) and 600 ng of polyethyleneimine (Polysciences, catalog no. 24765-1). For drug treatment experiments, drugs were added 12 h post-transfection and incubated with cells for 24 h before the SEAP reporter detection assay.
# SEAP activity (U l^−1) in cell culture supernatants was quantified by kinetic measurements at 405 nm (1 minute per measurement for 30 cycles) of absorbance increase due to phosphatase-mediated hydrolysis of para-nitrophenyl phosphate (pNPP).
# Binding affinities of SPR drug competition assays were calculated using three-parameter nonlinear regression in GraphPad Prism (v.8.3.0). Representative data of cell assays are presented as individual values and mean values (bars). n = 3 refers to biological replicates. All IC50 or EC50 values of cell assays reported were calculated using four-parameter nonlinear regression ± s.d. Bandpass features of cutoff concentrations and Bandwidth90% were estimated based on the curve fitted using bell-shaped curve nonlinear regression in GraphPad Prism (v.8.3.0). […]
# Supplementary Figure 4: Design, screening and validation of BclXLhigh variants. a) Screening of BclXLhigh variants in the GEMS platform. […]
# Dissociation constant measurement of BclXLhigh-v(1-3) and LD3. Equilibrium curves are fitted using […]
# BclXLhigh-v1 (purple), BclXLhigh-v2 (blue), […]
# a) Bcl2high-based bandpass filter designs were developed and to respond to different concentrations of […]
# corresponding inhibitor. c) Screening of Bcl2high-based bandpass filter variants in the GEMS platform.
# The designed binder LD3 was fused to the druglow-receptor (PSV40-IgK-Bcl2-LD3-EpoRm-IL-6RBm-pA) in one EpoR chain and Bcl2high variants with the insensitive Bcl2 (iBcl2) as control in the other EpoR chain (PSV40-IgK-Bcl2high-EpoRm-IL-6RBm-pA). HEK293T cells were transfected with indicated […]
# the mean of six biological replicates ± s.d., overlaid with a scatter dot plot of the original data points.
# (1 picture or pasted object on this page, not shown here)
# Supplementary Figure 6: Binding affinities and drug resistances of Bcl2high-v(2,4,5) assessed by […]
# a) Measurement of dissociation constants for Bcl2high-v(2,4,5) and LD3 interactions. Equilibrium curves […]
# Bcl2high-v(2,4,5) measured by SPR. 5 μM of Bcl2 or indicated variants were mixed with 10 μM of […]
# Bcl2high-v2 (red), Bcl2high-v4
# Supplementary Figure 7: Screening of LD3 variants in CBPA11-v(1-3) and raw data of CBPA11-v(1,3) with LD3-v3 variant. a-c) Screening of LD3 and LD3-v(1-3) variants in complex with BclXL for more sensitive CBPA11-v1 (a), CBPA11-v2 (b), CBPA11-v3 (c) in the GEMS platform. The LD3 variants replaced the role of LD3 (PSV40-IgK-BclXL-LD3-v(1-3)-EpoRm-IL-6RBm-pA) in one EpoR chain and BclXLhigh-v(1-3) in the other EpoR chain (PSV40-IgK-BclXLhigh-V(1-3)-EpoRm-IL-6RBm-pA). HEK293T cells were transfected with […]
smiles,measurement,setting,value
CN(C)CC#Cc1ccc(OCCCc2sc(N3CCc4cccc(C(=O)Nc5nc6ccccc6s5)c4C3)nc2C(=O)O)c(F)c1 [A-1155463],Normalized data (SEAP),A-1155463 10 nM,57.1742
same,Raw data (SEAP),A-1155463 10 nM,4.199
same,Normalized data (SEAP),A-1155463 31.6 nM,64.0307
same,Raw data (SEAP),A-1155463 31.6 nM,4.702
same,Normalized data (SEAP),A-1155463 100 nM,100
same,Raw data (SEAP),A-1155463 100 nM,7.344
same,Normalized data (SEAP),A-1155463 316 nM,98.6857
same,Raw data (SEAP),A-1155463 316 nM,7.247
same,Normalized data (SEAP),A-1155463 1000 nM,76.9661
same,Raw data (SEAP),A-1155463 1000 nM,5.652
same,Normalized data (SEAP),A-1155463 3160 nM,98.598
same,Raw data (SEAP),A-1155463 3160 nM,7.241
same,Normalized data (SEAP),A-1155463 10000 nM,93.3297
same,Raw data (SEAP),A-1155463 10000 nM,6.854
same,"SEAP, replicate values","Supplementary Figure 9e, CBPA11-v3-BclXLv2, A-1155463 1 nM",84.4482 and 81.7463 and 104.541
same,"SEAP, replicate values","Supplementary Figure 9e, CBPA11-v3-BclXLv2, A-1155463 3.18 nM",146.322 and 134.178 and 165.303
same,"SEAP, replicate values","Supplementary Figure 9e, CBPA11-v3-BclXLv2, A-1155463 10 nM",324.719 and 293.474 and 344.378
same,"SEAP, replicate values","Supplementary Figure 9e, CBPA11-v3-BclXLv2, A-1155463 31.8 nM",360.563 and 353.899 and 371.872
same,"SEAP, replicate values","Supplementary Figure 9e, CBPA11-v3-BclXLv2, A-1155463 100 nM",397.777 and 391.029 and 415.369
same,"SEAP, replicate values","Supplementary Figure 9e, CBPA11-v3-BclXLv2, A-1155463 318 nM",374.208 and 326.503 and 405.592
same,"SEAP, replicate values","Supplementary Figure 9e, CBPA11-v3-BclXLv2, A-1155463 1000 nM",326.827 and 274.864 and 352.239
same,"SEAP, replicate values","Supplementary Figure 9e, CBPA11-v3-BclXLv2, A-1155463 3180 nM",224.895 and 197.696 and 225.125
same,"SEAP, replicate values","Supplementary Figure 9e, CBPA11-v3, A-1155463 1 nM",77.8998 and 72.2772 and 68.2722
same,"SEAP, replicate values","Supplementary Figure 9e, CBPA11-v3, A-1155463 3.18 nM",101.26 and 74.5174 and 69.017
same,"SEAP, replicate values","Supplementary Figure 9e, CBPA11-v3, A-1155463 10 nM",279.56 and 237.506 and 229.509
same,"SEAP, replicate values","Supplementary Figure 9e, CBPA11-v3, A-1155463 31.8 nM",420.603 and 418.534 and 369.593
same,"SEAP, replicate values","Supplementary Figure 9e, CBPA11-v3, A-1155463 100 nM",495.942 and 494.207 and 527.219
same,"SEAP, replicate values","Supplementary Figure 9e, CBPA11-v3, A-1155463 318 nM",528.894 and 526.095 and 525.969
same,"SEAP, replicate values","Supplementary Figure 9e, CBPA11-v3, A-1155463 1000 nM",429.812 and 444.52 and 449.13
same,"SEAP, replicate values","Supplementary Figure 9e, CBPA11-v3, A-1155463 3180 nM",188.374
same,"SEAP, replicate values","Supplementary Figure 9d, CBPA11-v1-BclXLv2, A-1155463 1 nM",111.205 and 87.5973 and 101.043
same,"SEAP, replicate values","Supplementary Figure 9d, CBPA11-v1-BclXLv2, A-1155463 3.18 nM",157.154 and 178.429 and 193.635
same,"SEAP, replicate values","Supplementary Figure 9d, CBPA11-v1-BclXLv2, A-1155463 10 nM",436.402 and 372.407 and 451.931
same,"SEAP, replicate values","Supplementary Figure 9d, CBPA11-v1-BclXLv2, A-1155463 31.8 nM",433.431 and 447.679 and 460.586
same,"SEAP, replicate values","Supplementary Figure 9d, CBPA11-v1-BclXLv2, A-1155463 100 nM",510.537 and 467.35 and 481.779
same,"SEAP, replicate values","Supplementary Figure 9d, CBPA11-v1-BclXLv2, A-1155463 318 nM",466.109 and 461.812 and 531.315
same,"SEAP, replicate values","Supplementary Figure 9d, CBPA11-v1-BclXLv2, A-1155463 1000 nM",444.141 and 425.472 and 444.224
same,"SEAP, replicate values","Supplementary Figure 9d, CBPA11-v1-BclXLv2, A-1155463 3180 nM",353.967 and 340.947 and 373.905
same,"SEAP, replicate values","Supplementary Figure 9d, CBPA11-v1-BclXLv2, A-1155463 10000 nM",194.487 and 169.62 and 189.065
same,"SEAP, replicate values","Supplementary Figure 9d, CBPA11-v1, A-1155463 1 nM",63.0929 and 67.5149 and 84.3456
same,"SEAP, replicate values","Supplementary Figure 9d, CBPA11-v1, A-1155463 3.18 nM",70.097 and 95.813 and 111.853
same,"SEAP, replicate values","Supplementary Figure 9d, CBPA11-v1, A-1155463 10 nM",455.879 and 489.769 and 488.832
same,"SEAP, replicate values","Supplementary Figure 9d, CBPA11-v1, A-1155463 31.8 nM",620.201 and 681.136 and 678.515
same,"SEAP, replicate values","Supplementary Figure 9d, CBPA11-v1, A-1155463 100 nM",962.669 and 957.215 and 954.472
same,"SEAP, replicate values","Supplementary Figure 9d, CBPA11-v1, A-1155463 318 nM",973.295 and 858.467 and 847.573
same,"SEAP, replicate values","Supplementary Figure 9d, CBPA11-v1, A-1155463 1000 nM",855.269 and 763.206 and 684.986
same,"SEAP, replicate values","Supplementary Figure 9d, CBPA11-v1, A-1155463 3180 nM",503.783 and 501.256 and 493.903
same,"SEAP, replicate values","Supplementary Figure 9d, CBPA11-v1, A-1155463 10000 nM",194.615 and 191.032 and 215.159
